The values that follow come from patent US9126938B2, “Phosphatidylcholine transfer protein inhibitors” (The Brigham and Women's Hospital, Inc., priority 2009, dated 2015).

One may read the IC50 as the point on the concentration scale where inhibition reaches its midpoint. A low value points to greater potency. What is called inhibition is the drop in the measured response relative to a control, in per cent. Read a low inhibition as a response near the control.

For the first test, the target named is T1, PC-TP (Homo sapiens, UniProt Q9UKL6).
T1 sequence (Q9UKL6 1-214): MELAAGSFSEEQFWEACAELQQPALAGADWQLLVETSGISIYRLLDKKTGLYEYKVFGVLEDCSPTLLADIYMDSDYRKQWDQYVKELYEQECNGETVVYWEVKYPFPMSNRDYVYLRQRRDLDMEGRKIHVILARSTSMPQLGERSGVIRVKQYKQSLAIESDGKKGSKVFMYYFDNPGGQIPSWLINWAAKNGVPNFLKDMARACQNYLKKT
Kind of test: PC-TP inhibition assay (Wagle et al. method). The class given is biochemical. As to conditions: Table 1, concentration value. The procedure:
(§1) The compounds in Table 1 and 2 were assayed for their ability to inhibit PC-TP and StarD10, respectively, using a known assay method (see Wagle et al., 2008. Anal. Biochem. 383:85-92, which is incorporated herein by reference in its entirety). Further, certain compounds were also tested for their ability to inhibit StarD7 (see Table 2).
For the molecule `Cc1cc(C)nc(NS(=O)(=O)c2ccc(NC(=S)NC(=O)c3ccc(Cl)cc3Cl)cc2)n1` [Compound 1, 2,4-dichloro-N-(4-(N-(4,6-dimethyl-pyrimidin-2-yl)sulfamoyl)phenylcarbamothioyl) benzamide], half-maximal inhibition (IC50) required 3.2 µM. In other words, the single-digit micromolar range. With `Cc1cc(C)nc(NS(=O)(=O)c2ccc(NC(=O)NC(=O)c3ccccc3Cl)cc2)n1` [Compound 5, 2-chloro-N-(4-(N-(4,6-dimethylpyrimidin-2-yl)sulfamoyl)phenylcarbamoyl) benzamide], the IC50 came to 30 µM. This IC50 lies about 9.4-fold higher than the previous one. Same read-out and setting: in the case of `Cc1cc(C)nc(NS(=O)(=O)c2ccc(NC(=O)NC(=O)c3ccc(Cl)cc3)cc2)n1` [Compound 6, 4-chloro-N-(4-(N-(4,6-dimethylpyrimidin-2-yl)sulfamoyl)phenylcarbamoyl) benzamide] it was 26 µM; in that of `Cc1cc(C)nc(NS(=O)(=O)c2ccc(NC(=O)NC(=O)c3ccc(Cl)cc3Cl)cc2)c1` [Compound 7, 2,4-dichloro-N-(4-(N-(4,6-dimethylpyridin-2-yl)sulfamoyl)phenylcarbamoyl) benzamide], 5 µM. Still for that read-out and setting: the figure for `Cc1cc(C)nc(NS(=O)(=O)c2ccc(NC(=O)NC(=O)c3cccc(Cl)c3Cl)cc2)n1` [Compound 9, 2,3-dichloro-N-(4-(N-(4,6-dimethylpyrimidin-2-yl)sulfamoyl)phenylcarbamoyl) benzamide] is 3.2 µM; for `Cc1cc(C)nc(NS(=O)(=O)c2ccc(NC(=O)NC(=O)c3ccc(Cl)c(Cl)c3)cc2)n1` [Compound 10, 3,4-dichloro-N-(4-(N-(4,6-dimethylpyrimidin-2-yl)sulfamoyl)phenyl-carbamoyl)benzamide] it is 30 µM; for `Cc1cc(C)nc(NS(=O)(=O)c2ccc(N(C)C(=O)NC(=O)c3ccc(Cl)cc3Cl)cc2)n1` [Compound 11, 2,4-dichloro-N-((4-(N-(4,6-dimethylpyrimidin-2-yl)sulfamoyl)phenyl)(methyl)carbamoyl)benzamide] it is greater than 50 µM.

`Cc1cc(C)nc(N(C)S(=O)(=O)c2ccc(NC(=O)NC(=O)c3ccc(Cl)cc3Cl)cc2)n1` [Compound 12, 2,4-dichloro-N-(4-(N-(4,6-dimethylpyrimidin-2-yl)-N-methylsulfamoyl)phenylcarbamoyl) benzamide] registered an IC50 of 2.3 µM. This lies in the single-digit micromolar range. Molecule `Cc1cc(NS(=O)(=O)c2ccc(NC(=O)NC(=O)c3ccc(Cl)cc3Cl)cc2)nc(C)n1` [Compound 13, 2,4-dichloro-N-(4-(N-(2,6-dimethylpyrimidin-4-yl)sulfamoyl)phenylcarbamoyl) benzamide] came in with an IC50 of 2.3 µM. The molecule `Cc1cc(C)cc(NS(=O)(=O)c2ccc(NC(=O)NC(=O)c3ccc(Cl)cc3Cl)cc2)c1` [Compound 14] gave an IC50 of 20 µM. On the same count and under the same terms, the figure for `COc1ccc(NC(=O)C(Sc2cccc[n+]2[O-])c2ccccc2)cc1Cl` (centres unmarked) [Compound 17, 2-(2-(3-chloro-4-methoxyphenylamino)-2-oxo-1-phenylethylthio)pyridine 1-oxide] is 20 µM; for `O=C(Nc1cccc(C(F)(F)F)c1)C(Sc1cccc[n+]1[O-])c1ccccc1` (centres unmarked) [Compound 19, 2-(2-oxo-1-phenyl-2-(3-(trifluoromethyl)phenylamino)ethylthio)pyridine 1-oxide] it is 11 µM; for `O=C(Nc1cc(C(F)(F)F)cc(C(F)(F)F)c1)C(Sc1cccc[n+]1[O-])c1ccccc1` (centres unmarked) [Compound 20, 2-(2-(3,5-bis(trifluoromethyl)phenylamino)-2-oxo-1-phenylethylthio)pyridine 1-oxide] it is 13 µM.

`O=C(Nc1cc(Cl)cc(Cl)c1)C(Sc1cccc[n+]1[O-])c1ccccc1Cl` (centres unmarked) [Compound 21, 2-(1-(2-chlorophenyl)-2-(3,5-dichlorophenylamino)-2-oxoethylthio)pyridine 1-oxide] registered a concentration for half-maximal inhibition (IC50) of 15 µM. This IC50 and that of the molecule before are within 1.5-fold of each other. `COc1ccccc1C(Sc1cccc[n+]1[O-])C(=O)Nc1cc(Cl)cc(Cl)c1` (centres unmarked) [Compound 22, 2-(2-(3,5-dichlorophenylamino)-1-(2-methoxyphenyl)-2-oxoethylthio)pyridine 1-oxide] displayed an IC50 of 4.1 µM. On the same count and under the same terms, the figure for `O=C(Nc1cc(Cl)cc(Cl)c1)C(Sc1cccc[n+]1[O-])c1cccc2ccccc12` (centres unmarked) [Compound 23, 2-(2-(3,5-dichlorophenylamino)-1-(naphthalen-1-yl)-2-oxoethylthio)pyridine 1-oxide] is 12 µM; for `O=C(Nc1ccc(Cl)cc1C(F)(F)F)C(Sc1cccc[n+]1[O-])c1ccccc1` (centres unmarked) [Compound 28, 2-(2-(4-chloro-2-(trifluoromethyl)phenylamino)-2-oxo-1-phenylethylthio)pyridine 1-oxide] it is roughly 50 µM. `O=C(Nc1cc(C(F)(F)F)ccc1Cl)C(Sc1cccc[n+]1[O-])c1ccccc1` (centres unmarked) [Compound 31, 2-(2-(2-chloro-5-(trifluoromethyl)phenylamino)-2-oxo-1-phenylethylthio)pyridine 1-oxide] returned an IC50 greater than 100 µM.

In the case of `CCOc1ccccc1NC(=O)C(Sc1cccc[n+]1[O-])c1ccccc1` (centres unmarked) [Compound 32, 2-(2-(2-ethoxyphenylamino)-2-oxo-1-phenylethylthio)pyridine 1-oxide], the IC50 is greater than 100 µM.

The same test, now with this note: at 30 μM.
In the case of `O=C(Nc1cc(Cl)cc(Cl)c1)C(Sc1cc2ccccc2c[n+]1[O-])c1ccccc1` (centres unmarked) [Compound 24, 3-(2-(3,5-dichlorophenylamino)-2-oxo-1-phenylethylthio)isoquinoline 2-oxide], at 30 µM the inhibition was 25%.

The same test, now with this note: at 50 μM.
Molecule `COc1ccc(C(Sc2cccc[n+]2[O-])C(=O)Nc2cc(Cl)cc(Cl)c2)cc1` (centres unmarked) [Compound 25, 2-(2-(3,5-dichlorophenylamino)-1-(4-methoxyphenyl)-2-oxoethylthio)pyridine 1-oxide] displayed an inhibition at 50 µM of 30%. The molecule `O=C(Nc1cc(Cl)cc(Cl)c1)C(Sc1cccc[n+]1[O-])c1ccc2ccccc2c1` (centres unmarked) [Compound 26, 2-(2-(3,5-dichlorophenylamino)-1-(naphthalen-2-yl)-2-oxoethylthio)pyridine 1-oxide] came in with an inhibition at 50 µM of 20%.

Still in this test, the particulars now being: at 100 μM.
As to `Cc1cc(C)nc(NS(=O)(=O)c2ccc(NC(=S)NC(=O)c3ccc(F)cc3)cc2)n1` [Compound 2, N-(4-(N-(4,6-dimethylpyrimidin-2-yl)sulfamoyl)phenylcarbamothioyl)-4-fluorobenzamide], 100 µM produced 55% inhibition. On the same count and under the same terms, in the case of `Cc1cc(C)nc(NS(=O)(=O)c2ccc(NC(=S)NC(=O)c3ccccc3)cc2)n1` [Compound 3, N-(4-(N-(4,6-dimethylpyrimidin-2-yl)sulfamoyl)phenylcarbamothioyl) benzamide] it was 45%.

The test is the same for the next values; noted with them: compound fluorescence in the fluorescence-based assay.
For the molecule `CCN(CC)CCN(C(=O)Nc1ccc(S(=O)(=O)Nc2nc(C)cc(C)n2)cc1)C(=O)c1ccc(Cl)cc1Cl` [Compound 29, 2,4-dichloro-N-(2-(diethylamino)ethyl)-N-((4-(N-(4,6-dimethylpyrimidin-2-yl)sulfamoyl)phenyl)carbamoyl)benzamide], the “Activity (PC-TP), result in words” value is “High fluoroescense”. Still for that read-out and setting: in the case of `CCN(CC)CCN(c1nc(C)cc(C)n1)S(=O)(=O)c1ccc(NC(=O)NC(=O)c2ccc(Cl)cc2Cl)cc1` [Compound 30, 2,4-dichloro-N-((4-(N-(2-(diethylamino)ethyl)-N-(4,6-dimethylpyrimidin-2-yl)sulfamoyl)phenyl)carbamoyl)benzamide] it was “High fluorescense”.

The target in another test is T2, StarD10 (Homo sapiens, UniProt Q9Y365).
T2 sequence (Q9Y365 1-291): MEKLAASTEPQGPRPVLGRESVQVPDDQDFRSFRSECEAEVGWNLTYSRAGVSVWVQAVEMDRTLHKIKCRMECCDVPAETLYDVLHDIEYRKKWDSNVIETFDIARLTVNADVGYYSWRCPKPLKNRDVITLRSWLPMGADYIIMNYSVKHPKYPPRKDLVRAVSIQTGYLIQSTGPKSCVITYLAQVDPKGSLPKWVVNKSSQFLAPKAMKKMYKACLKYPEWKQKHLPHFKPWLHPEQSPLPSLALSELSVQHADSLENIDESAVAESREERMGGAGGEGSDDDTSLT
The test is described as follows: StarD10 inhibition assay. It counts as biochemical.
Conditions: not given
The procedure:
as §1
In the case of `Cc1cc(C)nc(NS(=O)(=O)c2ccc(NC(=O)NC(=O)c3cccc(Cl)c3Cl)cc2)n1` [Compound 9, 2,3-dichloro-N-(4-(N-(4,6-dimethylpyrimidin-2-yl)sulfamoyl)phenylcarbamoyl) benzamide], the IC50 amounted to 39 µM.

Turning to `Cc1cc(C)nc(N(C)S(=O)(=O)c2ccc(NC(=O)NC(=O)c3ccc(Cl)cc3Cl)cc2)n1` [Compound 12, 2,4-dichloro-N-(4-(N-(4,6-dimethylpyrimidin-2-yl)-N-methylsulfamoyl)phenylcarbamoyl) benzamide], the 50% inhibitory concentration (IC50) was 11 µM. In turn, `Cc1cc(NS(=O)(=O)c2ccc(NC(=O)NC(=O)c3ccc(Cl)cc3Cl)cc2)nc(C)n1` [Compound 13, 2,4-dichloro-N-(4-(N-(2,6-dimethylpyrimidin-4-yl)sulfamoyl)phenylcarbamoyl) benzamide] had an IC50 of 20 µM.
